For orientation: Kd means the constant that tells how readily two partners part at equilibrium. A low value points to a tighter complex.

SMILES strings stand for the structures. Where a chain is given by its changes, count along the chain named.

Consider eleven molecules from patent US12612410B2 (CHILDREN'S HOSPITAL MEDICAL CENTER, priority 2020, dated 2026).

The target in one experiment is T1, FLT3 K663Q (Homo sapiens, UniProt P36888, K663Q).
T1 construct: host or cells: E. coli BL21-derived host (T7 phage) or HEK-293
T1 sequence (P36888 27-993 K663Q): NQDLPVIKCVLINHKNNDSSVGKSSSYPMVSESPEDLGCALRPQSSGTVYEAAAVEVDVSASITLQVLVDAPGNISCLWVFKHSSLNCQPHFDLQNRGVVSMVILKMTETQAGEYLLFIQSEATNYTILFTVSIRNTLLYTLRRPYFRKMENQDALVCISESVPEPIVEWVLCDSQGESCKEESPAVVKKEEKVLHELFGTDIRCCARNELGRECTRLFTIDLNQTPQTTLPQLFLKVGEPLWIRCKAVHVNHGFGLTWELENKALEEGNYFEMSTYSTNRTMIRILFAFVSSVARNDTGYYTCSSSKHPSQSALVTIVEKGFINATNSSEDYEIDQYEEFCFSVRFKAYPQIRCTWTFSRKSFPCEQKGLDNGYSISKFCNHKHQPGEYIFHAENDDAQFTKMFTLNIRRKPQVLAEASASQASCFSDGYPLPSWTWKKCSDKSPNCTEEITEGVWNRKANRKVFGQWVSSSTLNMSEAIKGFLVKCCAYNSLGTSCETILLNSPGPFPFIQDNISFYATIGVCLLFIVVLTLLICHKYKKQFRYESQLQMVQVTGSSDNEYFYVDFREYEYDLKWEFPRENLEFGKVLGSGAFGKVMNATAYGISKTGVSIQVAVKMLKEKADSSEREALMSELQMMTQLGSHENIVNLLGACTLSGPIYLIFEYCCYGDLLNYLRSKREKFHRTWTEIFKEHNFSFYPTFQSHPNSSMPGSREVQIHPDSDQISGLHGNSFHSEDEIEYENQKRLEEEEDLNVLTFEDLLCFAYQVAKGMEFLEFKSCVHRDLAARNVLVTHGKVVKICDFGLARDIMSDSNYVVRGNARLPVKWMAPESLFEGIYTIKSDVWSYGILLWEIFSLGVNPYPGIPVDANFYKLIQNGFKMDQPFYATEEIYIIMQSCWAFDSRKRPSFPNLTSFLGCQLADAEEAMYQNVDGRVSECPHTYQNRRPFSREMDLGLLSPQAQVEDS
Briefly: DiscoverX KINOMEscan competition binding, FLT3 K663Q. From the text: (§1) Kinase binding data were obtained for various exemplary compounds prepared according to Examples 1-24 using the DiscoverX KINOMVIEscan® active site-directed competition binding site-directed assay protocol described below. […] As a result, the data report thermodynamic interaction affinities (Kd values), rather than IC50 values that are dependent on ATP concentrations. The assay uses a DNA-tagged version of the protein kinase, and an immobilized ligand bound to a solid support. Compounds that directly or indirectly prevent kinase binding to the immobilized ligand reduce the amount of kinase captured on the solid support, which is detected using an ultra-sensitive qPCR method. Affinity constants reported from the assay have been reported to be independent of the immobilized ligand used that is coupled to the solid support (See supplemental information in Fabian, M. A. et. al., (2005) Nat. Biotechnol. 23, 329-336; Wodicka, L. M. et. al., (2010) Chem. Biol. 17, 1241-1249.)
(§2) Kinase-tagged T7 phage strains were prepared in an E. coli host derived from the BL21 strain. E. coli were grown to log-phase and infected with T7 phage and incubated with shaking at 32° C. until lysis. The lysates were centrifuged and filtered to remove cell debris. The remaining kinases were produced in HEK-293 cells and subsequently tagged with DNA for qPCR detection. Streptavidin-coated magnetic beads were treated with biotinylated small molecule ligands for 30 minutes at room temperature to generate affinity resins for kinase assays. The liganded beads were blocked with excess biotin and washed with blocking buffer (SeaBlock (Pierce), 1% BSA, 0.05% Tween 20, 1 mM DTT) to remove unbound ligand and to reduce non-specific binding. Binding reactions were assembled by combining kinases, liganded affinity beads, and test compounds in 1× binding buffer (20% SeaBlock, 0.17×PBS, 0.05% Tween 20, 6 mM DTT). Test compounds were prepared as 111× stocks in 100% DMSO. Kds were determined using an 11-point 3-fold compound dilution series with three DMSO control points. All compounds for Kd measurements are distributed by acoustic transfer (non-contact dispensing) in 100% DMSO. The compounds were then diluted directly into the assays such that the final concentration of DMSO was 0.9%. All reactions were performed in polypropylene 384-well plates. Each was a final volume of 0.02 mL. The assay plates were incubated at room temperature with shaking for 1 hour and the affinity beads were washed with wash buffer (1×PBS, 0.05% Tween 20). The beads were then re-suspended in elution buffer (1×PBS, 0.05% Tween 20, 0.5 μM nonbiotinylated affinity ligand) and incubated at room temperature with shaking for 30 minutes. The kinase concentration in the eluates was measured by qPCR.
(§3) Binding constants (Kds) were calculated with a standard dose-response curve using the Hill equation. The Hill Slope was set to −1. Curves were fitted using a non-linear least square fit with the Levenberg-Marquardt algorithm.

The next experiment has as its target T2, FLT3 D835V (Homo sapiens, UniProt P36888, D835V).
T2 construct: host or cells: E. coli BL21-derived host (T7 phage) or HEK-293
T2 sequence (P36888 27-993 D835V): T1 sequence (P36888 27-993 K663Q) with Q637K, D809V
As to the kind of experiment: DiscoverX KINOMEscan competition binding, FLT3 D835V.
Source text: as §1, §2, §3

As to `CC1(c2cn3c(-c4cccc(N[C@H]5CNC[C@@H]5F)n4)cnc3cn2)CC1` [Compound 1, N-((3S,4S)-4-fluoropyrrolidin-3-yl)-6-(6-(1-methylcyclopropyl)imidazo[1,2-a]pyrazin-3-yl)pyridin-2-amine], the dissociation constant Kd at FLT3 K663Q worked out at 0.24 nM; on FLT3 D835V, 0.015 nM.

On to `CC1(c2cn3c(-c4cccc(N[C@@H]5CCNC5)n4)cnc3cn2)CC1` [Compound 3, (R)-6-(6-(1-methylcyclopropyl)imidazo[1,2-a]pyrazin-3-yl)-N-(pyrrolidin-3-yl)pyridin-2-amine], for which the Kd on FLT3 K663Q was found to be 0.22 nM; on FLT3 D835V it was 0.023 nM.

As to `CC1(c2cn3c(-c4cccc(N[C@H]5CNCC56CC6)n4)cnc3cn2)CC1` [Compound 5, (R)-N-(6-(6-(1-methylcyclopropyl)imidazo[1,2-a]pyrazin-3-yl)pyridin-2-yl)-5-azaspiro[2.4]heptan-7-amine], the Kd at FLT3 K663Q was found to be 0.18 nM; at FLT3 D835V, 0.013 nM.

Take `FC(F)(F)C1(c2cn3c(-c4cccc(N[C@@H]5CCNC5)n4)cnc3cn2)CC1` [Compound 10, (R)-N-(pyrrolidin-3-yl)-6-(6-(1-(trifluoromethyl)cyclopropyl)imidazo[1,2-a]pyrazin-3-yl)pyridin-2-amine]: the values for the Kd on FLT3 K663Q and on FLT3 D835V were 0.45 nM and 0.083 nM, respectively.

For `FC(F)c1cn2c(-c3cccc(N[C@H]4CNC[C@@H]4F)n3)cnc2cn1` [Compound 16, 6-(6-(difluoromethyl)imidazo[1,2-a]pyrazin-3-yl)-N-((3S,4S)-4-fluoropyrrolidin-3-yl)pyridin-2-amine], the values for the Kd at FLT3 K663Q and at FLT3 D835V were 1.4 nM and 0.066 nM, respectively.

In the case of `FC(F)c1cn2c(-c3cccc(N[C@H]4CNCC[C@@H]4F)n3)cnc2cn1` [Compound 25, 6-(6-(difluoromethyl)imidazo[1,2-a]pyrazin-3-yl)-N-((3S,4S)-4-fluoropiperidin-3-yl)pyridin-2-amine], the Kd at FLT3 K663Q turned out to be 0.59 nM; on FLT3 D835V it was 0.036 nM.

With `CC(C)(O)c1cn2c(-c3cccc(N[C@@H]4CCCNC4)n3)cnc2cn1` [Compound 30, (R)-2-(3-(6-(piperidin-3-ylamino)pyridin-2-yl)imidazo[1,2-a]pyrazin-6-yl)propan-2-ol], the Kd was 0.83 nM at FLT3 K663Q and 0.36 nM on FLT3 D835V.

As to `CC(C)(O)c1cn2c(-c3cccc(N[C@H]4CNCC[C@@H]4F)n3)cnc2cn1` [Compound 31, 2-(3-(6-(((3S,4S)-4-fluoropiperidin-3-yl)amino)pyridin-2-yl)imidazo[1,2-a]pyrazin-6-yl)propan-2-ol], the Kd on FLT3 K663Q turned out to be 2.4 nM; at FLT3 D835V, 0.17 nM.

As to `FC(F)(F)COc1cn2c(-c3cccc(N[C@@H]4CCNC4)n3)cnc2cn1` [Compound 38, (R)-N-(pyrrolidin-3-yl)-6-(6-(2,2,2-trifluoroethoxy)imidazo[1,2-a]pyrazin-3-yl)pyridin-2-amine], the Kd at FLT3 K663Q worked out at 2.3 nM; on FLT3 D835V it was 0.12 nM.

Take `F[C@H]1CNC[C@@H]1Nc1cccc(-c2cnc3cnc(C4CC4)cn23)n1` [Compound 50, 6-(6-cyclopropylimidazo[1,2-a]pyrazin-3-yl)-N-((3S,4S)-4-fluoropyrrolidin-3-yl)pyridin-2-amine]: the Kd is 0.39 nM on FLT3 K663Q and 0.015 nM on FLT3 D835V.

Turning to `Cn1cc(-c2cn3c(-c4cccc(N[C@H]5CNC[C@@H]5F)n4)cnc3cn2)cn1` [Compound 52, N-((3S,4S)-4-fluoropyrrolidin-3-yl)-6-(6-(1-methyl-1H-pyrazol-4-yl)imidazo[1,2-a]pyrazin-3-yl)pyridin-2-amine], the Kd at FLT3 K663Q is 0.82 nM; at FLT3 D835V, 0.011 nM.
